Assay results taken from the Kinase Knowledgebase extract (Sharma et al. 2016).

Columns and labels:
PIK3CD (Human) [1] = molecular target: PIK3CD (Human) (UniProt O00329); test: Cell-Based Assay; details: raji
PIK3CD (Human) [2] = molecular target: PIK3CD (Human) (UniProt O00329); test: Enzyme Assay
PIK3CG (human) = PIK3CG (human) (UniProt P48736); test: Enzyme Assay
PIK3CB (Human) = PIK3CB (Human) (UniProt P42338); test: Enzyme Assay
PIK3CB (Human), sequence (P42338 whole entry, looked up): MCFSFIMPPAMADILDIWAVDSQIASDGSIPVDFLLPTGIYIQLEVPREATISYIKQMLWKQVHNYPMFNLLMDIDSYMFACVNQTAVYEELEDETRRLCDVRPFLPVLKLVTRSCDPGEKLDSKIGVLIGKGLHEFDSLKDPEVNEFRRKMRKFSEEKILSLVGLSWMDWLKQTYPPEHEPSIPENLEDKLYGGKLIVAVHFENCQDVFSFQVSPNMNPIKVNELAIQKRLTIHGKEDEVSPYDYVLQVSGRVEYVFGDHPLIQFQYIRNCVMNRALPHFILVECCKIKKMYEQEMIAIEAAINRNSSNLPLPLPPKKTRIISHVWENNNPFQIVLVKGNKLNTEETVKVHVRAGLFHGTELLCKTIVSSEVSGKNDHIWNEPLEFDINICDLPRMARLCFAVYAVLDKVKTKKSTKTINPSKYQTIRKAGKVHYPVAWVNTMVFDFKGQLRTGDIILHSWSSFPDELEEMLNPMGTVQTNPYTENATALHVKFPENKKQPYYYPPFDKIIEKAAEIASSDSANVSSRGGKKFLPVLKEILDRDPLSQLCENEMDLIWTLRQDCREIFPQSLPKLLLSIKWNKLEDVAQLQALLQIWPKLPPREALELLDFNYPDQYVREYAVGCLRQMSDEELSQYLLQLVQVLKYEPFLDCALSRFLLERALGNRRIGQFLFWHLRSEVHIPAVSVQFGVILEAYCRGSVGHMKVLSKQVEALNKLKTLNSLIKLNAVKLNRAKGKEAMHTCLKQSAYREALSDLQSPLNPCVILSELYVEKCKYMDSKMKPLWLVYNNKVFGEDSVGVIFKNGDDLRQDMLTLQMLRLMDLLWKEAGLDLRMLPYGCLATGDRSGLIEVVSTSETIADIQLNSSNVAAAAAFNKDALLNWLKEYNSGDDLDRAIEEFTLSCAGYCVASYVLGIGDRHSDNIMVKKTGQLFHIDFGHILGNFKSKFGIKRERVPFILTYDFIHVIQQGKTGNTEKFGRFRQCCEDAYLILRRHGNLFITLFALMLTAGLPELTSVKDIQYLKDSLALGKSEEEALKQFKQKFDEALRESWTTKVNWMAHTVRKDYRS

PIK3CD (Human), sequence (O00329 whole entry, looked up): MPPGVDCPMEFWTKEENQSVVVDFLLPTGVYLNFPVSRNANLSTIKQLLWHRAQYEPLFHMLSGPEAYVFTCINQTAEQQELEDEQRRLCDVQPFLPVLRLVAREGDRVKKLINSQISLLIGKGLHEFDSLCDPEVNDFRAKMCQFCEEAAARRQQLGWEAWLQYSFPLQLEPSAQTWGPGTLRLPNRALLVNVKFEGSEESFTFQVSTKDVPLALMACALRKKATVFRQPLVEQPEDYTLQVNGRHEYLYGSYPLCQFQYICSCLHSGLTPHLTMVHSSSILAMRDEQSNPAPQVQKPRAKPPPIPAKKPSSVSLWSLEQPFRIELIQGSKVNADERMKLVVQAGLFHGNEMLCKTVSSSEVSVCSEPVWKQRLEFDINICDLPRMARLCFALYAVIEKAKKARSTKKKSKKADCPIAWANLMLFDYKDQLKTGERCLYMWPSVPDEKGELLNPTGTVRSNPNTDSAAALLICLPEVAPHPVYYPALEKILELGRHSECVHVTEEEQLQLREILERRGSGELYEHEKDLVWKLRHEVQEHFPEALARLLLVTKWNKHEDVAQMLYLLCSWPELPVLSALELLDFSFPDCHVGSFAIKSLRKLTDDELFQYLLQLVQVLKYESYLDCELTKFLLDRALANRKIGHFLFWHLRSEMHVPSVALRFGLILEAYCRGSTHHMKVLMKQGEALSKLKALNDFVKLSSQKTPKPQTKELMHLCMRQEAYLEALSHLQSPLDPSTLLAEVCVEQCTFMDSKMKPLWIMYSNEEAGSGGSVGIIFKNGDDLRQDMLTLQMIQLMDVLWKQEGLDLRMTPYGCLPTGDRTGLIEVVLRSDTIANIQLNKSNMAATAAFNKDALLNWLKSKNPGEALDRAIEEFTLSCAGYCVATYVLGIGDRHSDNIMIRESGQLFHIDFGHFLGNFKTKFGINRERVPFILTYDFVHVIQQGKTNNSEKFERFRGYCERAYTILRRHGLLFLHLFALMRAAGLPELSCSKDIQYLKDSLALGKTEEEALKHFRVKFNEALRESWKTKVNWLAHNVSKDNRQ
PIK3CG (human), sequence (P48736 whole entry, looked up): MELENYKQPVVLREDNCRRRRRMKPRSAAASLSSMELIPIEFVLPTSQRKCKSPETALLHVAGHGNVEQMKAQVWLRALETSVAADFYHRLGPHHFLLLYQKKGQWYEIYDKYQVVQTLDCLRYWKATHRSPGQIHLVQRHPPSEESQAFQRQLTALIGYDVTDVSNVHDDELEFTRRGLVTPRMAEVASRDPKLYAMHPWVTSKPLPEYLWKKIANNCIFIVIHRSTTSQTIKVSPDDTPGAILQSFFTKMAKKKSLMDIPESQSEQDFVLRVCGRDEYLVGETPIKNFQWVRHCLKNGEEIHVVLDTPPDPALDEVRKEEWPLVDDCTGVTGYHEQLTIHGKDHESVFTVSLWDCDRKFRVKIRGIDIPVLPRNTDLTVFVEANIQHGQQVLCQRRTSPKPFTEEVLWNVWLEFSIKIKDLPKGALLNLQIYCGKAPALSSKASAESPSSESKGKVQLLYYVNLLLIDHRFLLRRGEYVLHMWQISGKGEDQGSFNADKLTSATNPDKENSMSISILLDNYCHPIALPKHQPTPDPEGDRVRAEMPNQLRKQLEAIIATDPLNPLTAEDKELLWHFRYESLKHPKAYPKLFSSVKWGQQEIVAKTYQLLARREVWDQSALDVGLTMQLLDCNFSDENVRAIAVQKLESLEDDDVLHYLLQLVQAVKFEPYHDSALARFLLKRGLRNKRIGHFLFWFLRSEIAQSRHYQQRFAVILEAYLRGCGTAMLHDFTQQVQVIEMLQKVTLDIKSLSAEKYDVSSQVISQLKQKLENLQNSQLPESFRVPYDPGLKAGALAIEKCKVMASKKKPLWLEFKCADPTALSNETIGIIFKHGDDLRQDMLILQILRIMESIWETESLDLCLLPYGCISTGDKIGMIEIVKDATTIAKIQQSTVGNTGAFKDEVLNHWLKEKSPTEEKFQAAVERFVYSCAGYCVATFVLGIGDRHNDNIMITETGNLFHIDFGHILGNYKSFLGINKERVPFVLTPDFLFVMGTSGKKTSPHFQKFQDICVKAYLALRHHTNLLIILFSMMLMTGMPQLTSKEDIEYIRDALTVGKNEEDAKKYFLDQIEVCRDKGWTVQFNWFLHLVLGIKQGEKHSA

SMILES	IC50 (PIK3CD (Human) [1]) [nM]	IC50 (PIK3CD (Human) [2]) [nM]	IC50 (PIK3CG (human)) [nM]	IC50 (PIK3CB (Human)) [nM]
CC#Cc1cccc2cc(C(C)NC(=O)c3c(N)nn4cccnc34)c(-c3ccccc3)nc12 (stereo not given)	1 to 100	1000 to 5000	100 to 500	1000 to 5000
COc1cc(C#Cc2cccc3cc([C@H](C)NC(=O)c4c(N)nn5cccnc45)n(-c4ccccc4)c(=O)c23)ccn1	100 to 500	5000 to 10000	1000 to 5000	5000 to 10000
C[C@H](NC(=O)c1c(N)nn2cccnc12)c1cc2cccc(CC(=O)c3cn[nH]c3)c2c(=O)n1-c1ccccc1	100 to 500	1000 to 5000	500 to 1000	5000 to 10000
COc1ncc(C#Cc2cccc3cc([C@H](C)NC(=O)c4c(N)nn5cccnc45)n(-c4ccccc4)c(=O)c23)cn1	100 to 500	5000 to 10000	100 to 500	5000 to 10000
COc1cnc(C(=O)N[C@@H](C)c2cc3cccc(C#Cc4cnn(C)c4)c3c(=O)n2-c2ccccc2)c(N)n1	1000 to 10000	5000 to 10000	> 5000	5000 to 10000
C[C@H](NC(=O)c1c(N)nn2cccnc12)c1cc2cccc(C#Cc3ccc(=O)n(C)c3)c2c(=O)n1-c1ccccc1	100 to 500	1000 to 5000	1 to 100	5000 to 10000
CC#Cc1cccc2nc([C@H](C)NC(=O)c3c(N)nn4cccnc34)n(-c3ccccc3)c(=O)c12	1 to 100	500 to 1000	1 to 100	1000 to 5000
C[C@H](NC(=O)c1c(N)nn2cccnc12)c1cc2cccc(CC(=O)c3cnn(C)c3)c2c(=O)n1-c1ccccc1	100 to 500	5000 to 10000	500 to 1000	5000 to 10000
C[C@H](NC(=O)c1c(N)nn2cccnc12)c1cc2cccc(C#Cc3ccncc3)c2c(=O)n1-c1ccccc1	100 to 500	5000 to 10000	100 to 500	5000 to 10000
Cc1c(C#Cc2cccc3nc([C@H](C)NC(=O)c4c(N)nn5cccnc45)n(-c4ccccc4)c(=O)c23)cnn1C	100 to 500	5000 to 10000	100 to 500	5000 to 10000
C[C@H](NC(=O)c1c(N)nn2cccnc12)c1cc2ccc3ccccc3c2c(=O)n1-c1ccccc1	1000 to 10000	5000 to 10000	500 to 1000	5000 to 10000
C#Cc1cccc2nc([C@H](C)NC(=O)c3c(N)nn4cccnc34)n(-c3ccccc3)c(=O)c12	1 to 100	1000 to 5000	1 to 100	1000 to 5000

More lines, now with the values ahead:

IC50 (PIK3CD (Human) [1]) [nM]	IC50 (PIK3CD (Human) [2]) [nM]	IC50 (PIK3CG (human)) [nM]	IC50 (PIK3CB (Human)) [nM]	SMILES
100 to 500	5000 to 10000	1 to 100	5000 to 10000	C[C@H](NC(=O)c1c(N)nn2cccnc12)c1cc2cccc(C#CC3CCOC3)c2c(=O)n1-c1ccccc1 (stereo not given in full)
100 to 500	1000 to 5000	100 to 500	1000 to 5000	C[C@H](NC(=O)c1c(N)nn2cccnc12)c1cc2cccc(C#CC3CC3)c2c(=O)n1-c1ccccc1
1 to 100	5000 to 10000	100 to 500	5000 to 10000	C[C@H](NC(=O)c1c(N)nn2cccnc12)c1cc2cccc(C#CC3CCOCC3)c2c(=O)n1-c1ccccc1
1000 to 10000	5000 to 10000	1000 to 5000	5000 to 10000	C[C@H](NC(=O)c1c(N)nn2cccnc12)c1cc2cccc(C#CC3CCCCC3)c2c(=O)n1-c1ccccc1
100 to 500	1000 to 5000	1 to 100	1 to 500	C[C@H](NC(=O)c1c(N)nn2cccnc12)c1cc2cccc(C#CC=O)c2c(=O)n1-c1ccccc1
100 to 500	5000 to 10000	100 to 500	5000 to 10000	C[C@H](NC(=O)c1c(N)nn2cccnc12)c1cc2cccc(C#Cc3nccs3)c2c(=O)n1-c1ccccc1
500 to 1000	5000 to 10000	100 to 500	5000 to 10000	Cc1nn(C)cc1C#Cc1cccc2cc([C@H](C)NC(=O)c3c(N)nn4cccnc34)n(-c3ccccc3)c(=O)c12
100 to 500	5000 to 10000	1 to 100	5000 to 10000	Cc1nc(C#Cc2cccc3cc([C@H](C)NC(=O)c4c(N)nn5cccnc45)n(-c4ccccc4)c(=O)c23)cs1
